In PubChem BioAssay (NCI):
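Grown in 96-well plates, cells were treated for 48 hours with each compound at five concentrations. Insufficient inhibition: endpoint recorded as highest concentration tested. TGI: concentration producing complete growth inhibition.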 *1 amine or outer side, *2 acyl side, *3 side chain or, on linkers, in order; H or OH if unused. Where a SMILES comes first, the peptide text is derived from it. Bridges are numbered along the chain shown (N, C = ends). Roman numbers before positions name the chains, in order. [ ]: non-standard residue; d: D form. Actinocin(9to1) = Cc1c2oc3c(C)ccc(C(=O)[*:1])c3nc-2c(C(=O)[*:2])c(N)c1=O; NMeV = CN[CH](C(=O)O)C(C)C; Sar = CNCC(=O)O

Legend:
Experiment in all cases: NCI tumour cell line growth inhibition, 48 h
[1] = test system: SNB-19 CNS
[2] = test system: SN12C renal
[3] = test system: U251 CNS
[4] = test system: RXF 393 renal
[5] = test system: DLD-1 colon
[6] = test system: LXFL 529 NSCLC
[7] = test system: DMS 114 small cell lung
[8] = test system: COLO 205 colon
[9] = test system: SK-MEL-5 melanoma
[10] = test system: 786-0 renal
[11] = test system: MDA-MB-231 breast
[12] = test system: MDA-MB-435

| SMILES | TGI [1] [µM] | TGI [2] [µM] | TGI [3] [µM] | TGI [4] [µM] | TGI [5] [µM] | TGI [6] [µM] | TGI [7] [µM] | TGI [8] [µM] | TGI [9] [µM] | TGI [10] [µM] | TGI [11] [µM] | TGI [12] [µM] |
| --- | --- | --- | --- | --- | --- | --- | --- | --- | --- | --- | --- | --- |
| NNc1nnc(-c2ccccc2)nc1Cc1ccccc1 | > 100 | 51.6 | > 100 | > 100 | > 100 | 78.9 | 17 | > 100 | > 100 |  |  |  |
| COc1ccccc1NC(=O)CSC(N)=O | > 100 | > 100 | 66.2 |  | > 100 |  | > 100 | > 100 | > 100 | 36.6 |  |  |
| CC(C)NCCNC(=O)c1ccccc1Nc1c(Cl)cccc1Cl | 30 | 26.8 | 16.8 | 17 | 25.7 | 31.5 | 23.4 | 24.9 | 17.3 | 16 |  |  |
| Cc1cccc(=O)c([O-])c1.Cc1cccc(=O)c([O-])c1.Cc1cccc(=O)c([O-])c1.Cc1cccc(=O)c([O-])c1.[Th+4] | > 100 | > 100 | > 100 | > 100 | > 100 | > 100 | 15.6 | > 100 | 31.9 | > 78.5 |  |  |
| O=P1(N(CCCl)CCCl)NCCCO1 (stereo not drawn) | > 250 | > 250 | > 250 | > 250 | > 250 | > 250 | > 250 | > 250 | > 250 | > 250 | > 250 | > 250 |
| Cc1ccc(Cl)c2c(=O)cc(-c3ccccc3)[nH]c12 |  | > 100 | > 100 | > 100 | > 100 | > 100 |  | > 100 | > 100 | > 100 |  |  |
| Cc1c2oc3c(C)ccc(C(=O)NC4C(=O)NC(Cc5ccc(O)cc5)C(=O)N5CCCC5C(=O)N(C)CC(=O)N(C)C(C(C)C)C(=O)OC4C)c3nc-2c(C(=O)NC2C(=O)NC(Cc3ccc(O)cc3)C(=O)N3CCCC3C(=O)N(C)CC(=O)N(C)C(C(C)C)C(=O)OC2C)c(N)c1=O (stereo not drawn) (I: TYP[Sar][NMeV] / II: TYP[Sar][NMeV]; ester I:1-I:C, II:1-II:C; linker I:N-II:N via Actinocin(9to1); configuration not given here) | > 56.1 | > 100 | > 48.7 | > 57.3 |  |  |  | > 100 | > 86.1 | > 74.9 | > 66.9 | > 100 |
| NC(=O)CC[C@H]1C(=O)N=C(N)N1C(=O)OCc1ccccc1 | > 100 | > 100 | > 100 | > 100 |  |  |  | > 100 | > 100 | > 100 | > 100 | > 100 |
| Cc1cc2nc3c(N)nn(CCN(C)C)c3nc2cc1C | > 100 | > 100 | > 100 | > 100 |  |  |  | > 100 | > 100 | > 100 | > 100 | > 100 |
| O=C(NCCNCCO)N/N=C/c1ccccc1 | > 100 | > 100 | > 100 | > 100 | > 100 | > 100 | > 100 |  | > 100 | > 100 |  |  |
